Experiments:
HCC 2998 = assay: Growth inhibition against human HCC 2998 cells assessed as lethal concentration incubated for 48 hrs by sulforhodamine B spectrophotometric assay; type: functional; settings: read-out: LC50 (the source's name)
IGROV-1 = assay: Growth inhibition against human IGROV-1 cells assessed as lethal concentration incubated for 48 hrs by sulforhodamine B spectrophotometric assay; type: functional; settings: read-out: LC50 (the source's name)
SF-295 = assay: Growth inhibition of human SF-295 cells incubated for 48 hrs by sulforhodamine B spectrophotometric assay; type: functional
A549 = assay: Growth inhibition against human A549 cells assessed as lethal concentration incubated for 48 hrs by sulforhodamine B spectrophotometric assay; type: functional; settings: read-out: LC50 (the source's name)
NCI-H226 = assay: Growth inhibition against human NCI-H226 cells assessed as total growth inhibitory concentration incubated for 48 hrs by sulforhodamine B spectrophotometric assay; type: functional
TK-10 = assay: Growth inhibition against human TK-10 cells assessed as lethal concentration incubated for 48 hrs by sulforhodamine B spectrophotometric assay; type: functional; settings: read-out: LC50 (the source's name)
[1] = Cytotoxicity against mouse NIH3T3 cells assessed as cell growth inhibition incubated for 72 hrs by MTT assay; type: toxicity, cell-based
EKVX [2] = assay: Growth inhibition of human EKVX cells incubated for 48 hrs by sulforhodamine B spectrophotometric assay; type: functional
MDA-MB-468 = assay: Growth inhibition against human MDA-MB-468 cells assessed as lethal concentration incubated for 48 hrs by sulforhodamine B spectrophotometric assay; type: functional; settings: read-out: LC50 (the source's name)
MOLT-4 = assay: Growth inhibition of human MOLT-4 cells incubated for 48 hrs by sulforhodamine B spectrophotometric assay; type: functional
OVCAR-4 = assay: Growth inhibition against human OVCAR-4 cells assessed as lethal concentration incubated for 48 hrs by sulforhodamine B spectrophotometric assay; type: functional; settings: read-out: LC50 (the source's name)
KM12 = assay: Growth inhibition of human KM12 cells incubated for 48 hrs by sulforhodamine B spectrophotometric assay; type: functional
SNB-75 [3] = assay: Growth inhibition against human SNB-75 cells assessed as lethal concentration incubated for 48 hrs by sulforhodamine B spectrophotometric assay; type: functional; settings: read-out: LC50 (the source's name)
SF-539 [4] = assay: Growth inhibition of human SF-539 cells incubated for 48 hrs by sulforhodamine B spectrophotometric assay; type: functional
NCI-H460 = assay: Growth inhibition against human NCI-H460 cells assessed as total growth inhibitory concentration incubated for 48 hrs by sulforhodamine B spectrophotometric assay; type: functional
COLO 205 = assay: Growth inhibition against human COLO 205 cells assessed as total growth inhibitory concentration incubated for 48 hrs by sulforhodamine B spectrophotometric assay; type: functional
MDA-MB-231 = assay: Induction of apoptosis in human MDA-MB-231 cells assessed as increase in caspase 3/7 activity at 10 uM incubated for 24 hrs by flow cytometry analysis; type: functional
NCI/ADR-RES = assay: Growth inhibition of human NCI/ADR-RES cells incubated for 48 hrs by sulforhodamine B spectrophotometric assay; type: functional
[5] = Antileukemic activity against human CLL cell assessed as cell growth inhibition incubated for 72 hrs during remission period by MTT assay; type: functional, cell-based
HOP-92 = assay: Growth inhibition of human HOP-92 cells incubated for 48 hrs by sulforhodamine B spectrophotometric assay; type: functional
CCRF-CEM [6] = assay: Induction of cell cycle arrest in human CCRF-CEM cells assessed as accumulation of cells at higher G2/M phase at 4.14 uM incubated for 24 hrs by propidium iodide staining based flow cytometry analysis (reference value: 10.09 +/- 0.14%); type: functional
HT-29 = assay: Growth inhibition of human HT-29 cells incubated for 48 hrs by sulforhodamine B spectrophotometric assay; type: functional
EKVX [7] = assay: Growth inhibition against human EKVX cells assessed as lethal concentration incubated for 48 hrs by sulforhodamine B spectrophotometric assay; type: functional; settings: read-out: LC50 (the source's name)
[8] = Acute toxicity in C57BL/6 mouse assessed as lymphocyte count at 20 mg/kg,ip administration and observed after 22 days; type: organism-based; settings: in vivo, 528 h, time 22 day
Malme-3M [9] = assay: Anticancer activity against human Malme-3M cells assessed as cell growth at 10 uM incubated for 48 hrs by sulforhodamine B assay; type: functional; settings: read-out: Activity
CCRF-CEM [10] = assay: Induction of cell cycle arrest in human CCRF-CEM cells assessed as accumulation of cells at M phase at 20.7 uM incubated for 24 hrs by propidium iodide staining based flow cytometry analysis (reference value: 1.97 +/- 0.042%); type: functional
SF-539 [11] = assay: Growth inhibition against human SF-539 cells assessed as lethal concentration incubated for 48 hrs by sulforhodamine B spectrophotometric assay; type: functional; settings: read-out: LC50 (the source's name)
CCRF-CEM [12] = assay: Induction of cell cycle arrest in human CCRF-CEM cells assessed as accumulation of cells at S phase at 20.7 uM incubated for 24 hrs by propidium iodide staining based flow cytometry analysis (reference value: 41.09 +/- 0.5%); type: functional
SNB-75 [13] = assay: Growth inhibition of human SNB-75 cells incubated for 48 hrs by sulforhodamine B spectrophotometric assay; type: functional
SW-620 = assay: Growth inhibition against human SW620 cells assessed as lethal concentration incubated for 48 hrs by sulforhodamine B spectrophotometric assay; type: functional; settings: read-out: LC50 (the source's name)
Malme-3M [14] = assay: Growth inhibition against human Malme-3M cells assessed as lethal concentration incubated for 48 hrs by sulforhodamine B spectrophotometric assay; type: functional; settings: read-out: LC50 (the source's name)
Hs-578T = assay: Growth inhibition against human Hs-578T cells assessed as total growth inhibitory concentration incubated for 48 hrs by sulforhodamine B spectrophotometric assay; type: functional
[15] = Acute toxicity in C57BL/6 mouse assessed as ratio of heart weight to body weight at 20 mg/kg,ip administration and observed after 22 days (reference value: 0.62 +/- 0.08); type: organism-based; settings: in vivo, 528 h, time 22 day
EKVX [16] = assay: Growth inhibition against human EKVX cells assessed as total growth inhibitory concentration incubated for 48 hrs by sulforhodamine B spectrophotometric assay; type: functional
CCRF-CEM [17] = assay: Induction of cell cycle arrest in human CCRF-CEM cells assessed as accumulation of cells at G2/M phase at 4.14 uM incubated for 24 hrs by propidium iodide staining based flow cytometry analysis (reference value: 20.24 +/- 0.25%); type: functional
[18] = Acute toxicity in C57BL/6 mouse assessed as ratio of lung weight to body weight at 20 mg/kg,ip administration and observed after 22 days (reference value: 0.8 +/- 0.09); type: organism-based; settings: in vivo, 528 h, time 22 day
UACC-257 = assay: Growth inhibition against human UACC-257 cells assessed as total growth inhibitory concentration incubated for 48 hrs by sulforhodamine B spectrophotometric assay; type: functional
[19] = GSH reactivity of compound at pH 7.4 phosphate buffer assessed as GSH-adduct formation at 1 mM incubated for 1 hr by spectrophotometric analysis; type: physicochemical; settings: pH 7.4, 1 h, 1000 µM
A498 = assay: Growth inhibition of human A498 cells incubated for 48 hrs by sulforhodamine B spectrophotometric assay; type: functional
CCRF-CEM [20] = assay: Induction of cell cycle arrest in human CCRF-CEM cells assessed as accumulation of cells at S phase at 4.14 uM incubated for 24 hrs by propidium iodide staining based flow cytometry analysis (reference value: 41.09 +/- 0.5%); type: functional
RPMI-8226 = assay: Growth inhibition against human RPMI-8226 cells assessed as total growth inhibitory concentration incubated for 48 hrs by sulforhodamine B spectrophotometric assay; type: functional
[21] = Cytotoxicity against human Lymphocyte cells assessed as cell growth inhibition incubated for 72 hrs by MTT assay; type: toxicity, cell-based; settings: lymphocytes

**Q.** Which results are given for `O=C1C2=C(C(=O)c3c(O)cccc31)C(c1ccco1)c1sc(=O)[nH]c1S2` (configuration not stated)?
**A.** CC50 (HCC 2998): 18.4 µM; CC50 (IGROV-1): 38 µM; GI50 (SF-295): 1.98 µM; CC50 (A549): 7.38 µM; TGI (NCI-H226): 5.46 µM; CC50 (TK-10): 56.4 µM; IC50 at 72 h [1]: 6.07 µM; GI50 (EKVX [2]): 6.75 µM; CC50 (MDA-MB-468): > 100 µM; GI50 (MOLT-4): 2.71 µM; CC50 (OVCAR-4): 8.71 µM; GI50 (KM12): 3.71 µM; CC50 (SNB-75 [3]): 25.8 µM; GI50 (SF-539 [4]): 1.93 µM; TGI (NCI-H460): 3.48 µM; TGI (COLO 205): 3.61 µM; Activity (MDA-MB-231): 20.6%; GI50 (NCI/ADR-RES): 3.02 µM; IC50 [5]: 28.2 µM; GI50 (HOP-92): 3.15 µM; Activity (CCRF-CEM [6]): 12.23%; GI50 (HT-29): 3.3 µM; CC50 (EKVX [7]): 44.3 µM; Activity [8]: 67.05%; growth at 10 µM (Malme-3M [9]): -92.3%; Activity (CCRF-CEM [10]): 1.7%; CC50 (SF-539 [11]): 7.05 µM; Activity (CCRF-CEM [12]): 42.33%; GI50 (SNB-75 [13]): 3.17 µM; CC50 (SW-620): 52.7 µM; CC50 (Malme-3M [14]): 4.75 µM; TGI (Hs-578T): 6.56 µM; Ratio [15]: 0.51; TGI (EKVX [16]): 19.4 µM; Activity (CCRF-CEM [17]): 23.82%; Ratio [18]: 0.82; TGI (UACC-257): 3.26 µM; Activity [19]: Active; GI50 (A498): 3.48 µM; Activity (CCRF-CEM [20]): 41.83%; TGI (RPMI-8226): 9.83 µM; IC50 at 72 h [21]: > 50 µM
